The test addresses T1, Progesterone receptor (Oryctolagus cuniculus, UniProt P06186).
T1 sequence (P06186 whole entry): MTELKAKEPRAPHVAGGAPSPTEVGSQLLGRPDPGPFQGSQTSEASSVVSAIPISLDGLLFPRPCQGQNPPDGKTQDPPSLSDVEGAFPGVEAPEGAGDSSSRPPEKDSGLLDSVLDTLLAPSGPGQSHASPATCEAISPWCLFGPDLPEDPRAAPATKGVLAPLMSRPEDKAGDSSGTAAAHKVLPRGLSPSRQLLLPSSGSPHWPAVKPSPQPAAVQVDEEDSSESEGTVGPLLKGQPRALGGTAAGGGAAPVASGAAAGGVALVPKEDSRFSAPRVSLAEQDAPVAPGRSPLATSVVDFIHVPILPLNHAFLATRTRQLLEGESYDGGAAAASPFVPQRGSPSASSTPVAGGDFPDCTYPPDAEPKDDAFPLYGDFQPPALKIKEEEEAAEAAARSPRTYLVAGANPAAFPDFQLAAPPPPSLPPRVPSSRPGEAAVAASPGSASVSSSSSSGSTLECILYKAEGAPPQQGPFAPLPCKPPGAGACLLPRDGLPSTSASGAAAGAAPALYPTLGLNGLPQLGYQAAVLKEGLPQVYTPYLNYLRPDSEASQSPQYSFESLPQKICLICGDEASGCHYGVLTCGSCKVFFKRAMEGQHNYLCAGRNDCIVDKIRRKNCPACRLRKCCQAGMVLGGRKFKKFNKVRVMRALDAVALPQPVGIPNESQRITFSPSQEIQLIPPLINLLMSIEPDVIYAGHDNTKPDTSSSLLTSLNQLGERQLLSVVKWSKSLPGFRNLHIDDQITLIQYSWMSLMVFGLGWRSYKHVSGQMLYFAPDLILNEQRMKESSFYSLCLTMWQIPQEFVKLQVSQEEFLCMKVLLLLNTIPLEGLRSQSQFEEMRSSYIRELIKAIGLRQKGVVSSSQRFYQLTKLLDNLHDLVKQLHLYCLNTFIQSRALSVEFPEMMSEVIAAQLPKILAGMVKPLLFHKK
Kind of test: ChEBML_159701. The source says: Binding affinity determined by ability to displace [3H]R5020 radioligand using uterine progesterone receptor obtained from estrogen-primed rabbit

One may read the IC50 as the concentration that inhibits the measured activity by half. High values mean weaker potency, low ones greater potency.

Take `O=C(NNCC1=NN(c2ccc(F)cc2)C2C(Cc3cccc4ccccc34)CCCC12)c1ccccc1` (configuration not stated): the half-inhibitory concentration (IC50) is greater than 10 µM. The figure for `O=S(=O)(NNCC1=NN(c2ccc(F)cc2)C2C(Cc3cccc4ccccc34)CCCC12)c1ccccc1` (configuration not stated) [1-(4-Fluoro-phenyl)-3-(N'-[(E)-methylene]benzenesulfonohydrazide)-7-naphthalen-1-ylmethyl-octahydro-indazole] is greater than 10 µM.

Values taken from BindingDB's records for doi:10.1016/S0960-894X(97)10016-6 (1997).
